# Where “and” joins values, the source holds several entries; their conditions need not be identical. Equal entries are not always repeated. Where two headings read alike, the source gives them in different places.
# Columns and labels:
# [1] = system: Heliothis virescens (tobacco budworm); assay: Heliothis virescens eggs in 24-well microtiter plate on artificial diet, larval mortality; assay type: in vivo; settings: for pest or weed control at 0.375 ppm / pest or weed control at 0.75 ppm / pest or weed control at 1.5 ppm / pest or weed control at 3 ppm / pest or weed control at 6 ppm / pest or weed control at 12 ppm / pest or weed control at 6.25 ppm / pest or weed control at 12.5 ppm / pest or weed control at 25 ppm / pest or weed control at 50 ppm / pest or weed control at 100 ppm / pest or weed control at 200 ppm: Heliothis virescens, 96 h, read-out: AVERAGE DEAD IN %
# Excerpt: (§1) The action to be expected E for a given active ingredient combination obeys the so-called COLBY formula and can be calculated as follows (COLBY, S.R. “Calculating synergistic and antagonistic responses of herbicide combination”. Weeds, Vol. 15, pages 20-22; 1967):
# (§2) ppm=milligrams of active ingredient (=a.i.) per liter of spray mixture X=% action by active ingredient A) using p ppm of active ingredient Y=% action by active ingredient B) using q ppm of active ingredient.
# (§3) According to COLBY, the expected (additive) action of active ingredients A)+B) using p+q ppm of active ingredient is
# (§4) If the action actually observed (O) is greater than the expected action (E), then the action of the combination is super-additive, i.e. there is a synergistic effect. In mathematical terms the synergism factor SF corresponds to O/E. In the agricultural practice an SF of ≧1.2 indicates significant improvement over the purely complementary addition of activities (expected activity), while an SF of ≦0.9 in the practical application routine signals a loss of activity compared to the expected activity.
# Heliothis Virescens (Tobacco Budworm)
# Eggs (0-24 h old) are placed in 24-well microtiter plate on artificial diet and treated with test solutions (DMSO) by pipetting. After an incubation period of 4 days, samples are checked for larval mortality.
# [2] = system: Tetranychus urticae (two-spotted spider mite); assay: Tetranychus urticae bean leaf discs in 24-well microtiter plates, mixed population mortality; assay type: in vivo; settings: 8 days
# Excerpt: as §1, §2, §3, §4
# Tetranychus Urticae (Two-Spotted Spider Mite)
# Bean leaf discs on agar in 24-well microtiter plates are sprayed with test solutions (DMSO). After drying, the leaf discs are infested with mite populations of mixed ages. 8 days later, discs are checked for mixed population mortality.
# [3] = single compound, 12.5 ppm AI, larval mortality, 4 days
# [4] = single compound, 25 ppm AI, larval mortality, 4 days
# [5] = single compound, 50 ppm AI, larval mortality, 4 days
# [6] = single compound, 100 ppm AI, larval mortality, 4 days
# [7] = single compound, 200 ppm AI, larval mortality, 4 days
compound,measurement,setting,value
Cc1cc(C2=NOC(c3cc(Cl)cc(Cl)c3)(C(F)(F)F)C2)ccc1C(=O)NC1CSC1 (racemic) [SYN 545706],AVERAGE DEAD IN %,"[1]; single compound, 0.1 ppm AI, larval mortality, 4 days",0%
same,AVERAGE DEAD IN %,"[1]; single compound, 0.2 ppm AI, larval mortality, 4 days",35% and 25%
same,AVERAGE DEAD IN %,"[1]; single compound, 0.4 ppm AI, larval mortality, 4 days",90% and 78%
same,AVERAGE DEAD IN %,"[1]; single compound, 0.8 ppm AI, larval mortality, 4 days",95% and 88%
same,AVERAGE DEAD IN %,"[1]; single compound, 1.6 ppm AI, larval mortality, 4 days",90% and 91%
same,AVERAGE DEAD IN %,"[1]; single compound, 3.2 ppm AI, larval mortality, 4 days",98% and 96%
CN/C(=N\[N+](=O)[O-])NCc1cnc(Cl)s1 [Clothianidin],pest or weed control at 0.375 ppm,[1]; Clothianidin alone 0.375 ppm AI,0%
same,pest or weed control at 0.75 ppm,[1]; Clothianidin alone 0.75 ppm AI,0%
same,pest or weed control at 1.5 ppm,[1]; Clothianidin alone 1.5 ppm AI,0%
same,pest or weed control at 3 ppm,[1]; Clothianidin alone 3 ppm AI,3%
same,pest or weed control at 6 ppm,[1]; Clothianidin alone 6 ppm AI,38%
same,pest or weed control at 12 ppm,[1]; Clothianidin alone 12 ppm AI,48%
same,pest or weed control at 0.375 ppm,[1]; single compound at 0.375 ppm AI,0%
same,pest or weed control at 0.75 ppm,[1]; single compound at 0.75 ppm AI,0%
same,pest or weed control at 1.5 ppm,[1]; single compound at 1.5 ppm AI,0%
same,pest or weed control at 3 ppm,[1]; single compound at 3 ppm AI,3%
same,pest or weed control at 6 ppm,[1]; single compound at 6 ppm AI,38%
same,pest or weed control at 12 ppm,[1]; single compound at 12 ppm AI,48%
same,pest or weed control at 0.375 ppm,"[1]; single compound, 0.375 ppm AI, larval mortality, 4 days",0%
same,pest or weed control at 0.75 ppm,"[1]; single compound, 0.75 ppm AI, larval mortality, 4 days",0%
same,pest or weed control at 1.5 ppm,"[1]; single compound, 1.5 ppm AI, larval mortality, 4 days",0%
same,pest or weed control at 3 ppm,"[1]; single compound, 3 ppm AI, larval mortality, 4 days",0%
same,pest or weed control at 6 ppm,"[1]; single compound, 6 ppm AI, larval mortality, 4 days",45%
same,pest or weed control at 12 ppm,"[1]; single compound, 12 ppm AI, larval mortality, 4 days",80%
N#CCNC(=O)c1cnccc1C(F)(F)F [Flonicamid],AVERAGE DEAD IN %,[1]; Flonicamid alone 12.5 ppm AI,0%
same,AVERAGE DEAD IN %,[1]; Flonicamid alone 25 ppm AI,0%
same,AVERAGE DEAD IN %,[1]; Flonicamid alone 50 ppm AI,0%
same,AVERAGE DEAD IN %,[1]; Flonicamid alone 100 ppm AI,0%
same,AVERAGE DEAD IN %,[1]; Flonicamid alone 200 ppm AI,0%
same,AVERAGE DEAD IN %,[1]; Flonicamid alone 400 ppm AI,0%
same,AVERAGE DEAD IN %,[1]; single compound at 12.5 ppm AI,0%
same,AVERAGE DEAD IN %,[1]; single compound at 25 ppm AI,0%
same,AVERAGE DEAD IN %,[1]; single compound at 50 ppm AI,0%
same,AVERAGE DEAD IN %,[1]; single compound at 100 ppm AI,0%
same,AVERAGE DEAD IN %,[1]; single compound at 200 ppm AI,0%
same,AVERAGE DEAD IN %,[1]; single compound at 400 ppm AI,0%
same,AVERAGE DEAD IN %,[1]; [3],0%
same,AVERAGE DEAD IN %,[1]; [4],0%
same,AVERAGE DEAD IN %,[1]; [5],15%
same,AVERAGE DEAD IN %,[1]; [6],0%
same,AVERAGE DEAD IN %,[1]; [7],0%
same,AVERAGE DEAD IN %,"[1]; single compound, 400 ppm AI, larval mortality, 4 days",0%
O=[N+]([O-])NC1=NCCN1Cc1ccc(Cl)nc1 [Imidacloprid],AVERAGE DEAD IN %,[2]; 25 ppm alone,0%
same,AVERAGE DEAD IN %,[2]; 50 ppm alone,0%
same,AVERAGE DEAD IN %,[2]; 100 ppm alone,25%
same,AVERAGE DEAD IN %,[2]; 200 ppm alone,0%
same,AVERAGE DEAD IN %,[2]; 400 ppm alone,13%
same,AVERAGE DEAD IN %,[2]; 800 ppm alone,25%
same,AVERAGE DEAD IN %,"[2]; Imidacloprid alone, 25 ppm, Table 123",0%
same,AVERAGE DEAD IN %,"[2]; Imidacloprid alone, 50 ppm, Table 123",0%
same,AVERAGE DEAD IN %,"[2]; Imidacloprid alone, 100 ppm, Table 123",25%
same,AVERAGE DEAD IN %,"[2]; Imidacloprid alone, 200 ppm, Table 123",0%
same,AVERAGE DEAD IN %,"[2]; Imidacloprid alone, 400 ppm, Table 123",13%
same,AVERAGE DEAD IN %,"[2]; Imidacloprid alone, 800 ppm, Table 123",25%
same,pest or weed control at 6.25 ppm,[1]; Imidacloprid alone 6.25 ppm AI,0%
same,pest or weed control at 12.5 ppm,[1]; Imidacloprid alone 12.5 ppm AI,0%
same,pest or weed control at 25 ppm,[1]; Imidacloprid alone 25 ppm AI,20%
same,pest or weed control at 50 ppm,[1]; Imidacloprid alone 50 ppm AI,50%
same,pest or weed control at 100 ppm,[1]; Imidacloprid alone 100 ppm AI,95%
same,pest or weed control at 200 ppm,[1]; Imidacloprid alone 200 ppm AI,100%
same,pest or weed control at 6.25 ppm,[1]; single compound at 6.25 ppm AI,0%
same,pest or weed control at 12.5 ppm,[1]; single compound at 12.5 ppm AI,0%
same,pest or weed control at 25 ppm,[1]; single compound at 25 ppm AI,20%
same,pest or weed control at 50 ppm,[1]; single compound at 50 ppm AI,50%
same,pest or weed control at 100 ppm,[1]; single compound at 100 ppm AI,95%
same,pest or weed control at 200 ppm,[1]; single compound at 200 ppm AI,100%
same,pest or weed control at 6.25 ppm,"[1]; single compound, 6.25 ppm AI, larval mortality, 4 days",0%
same,pest or weed control at 12.5 ppm,[1]; [3],0%
same,pest or weed control at 25 ppm,[1]; [4],75%
same,pest or weed control at 50 ppm,[1]; [5],85%
same,pest or weed control at 100 ppm,[1]; [6],88%
same,pest or weed control at 200 ppm,[1]; [7],100%
Emamectin,AVERAGE DEAD IN %,[2]; 0.1 ppm alone,70%
same,AVERAGE DEAD IN %,[2]; 0.2 ppm alone,75%
same,AVERAGE DEAD IN %,[2]; 0.4 ppm alone,93%
same,AVERAGE DEAD IN %,[2]; 0.8 ppm alone,95%
same,AVERAGE DEAD IN %,[2]; 1.6 ppm alone,95%
same,AVERAGE DEAD IN %,[2]; 3.2 ppm alone,100%
same,AVERAGE DEAD IN %,"[2]; Emamectin alone, 0.1 ppm, Table 121",70%
same,AVERAGE DEAD IN %,"[2]; Emamectin alone, 0.2 ppm, Table 121",75%
same,AVERAGE DEAD IN %,"[2]; Emamectin alone, 0.4 ppm, Table 121",93%
same,AVERAGE DEAD IN %,"[2]; Emamectin alone, 0.8 ppm, Table 121",95%
same,AVERAGE DEAD IN %,"[2]; Emamectin alone, 1.6 ppm, Table 121",95%
same,AVERAGE DEAD IN %,"[2]; Emamectin alone, 3.2 ppm, Table 121",100%

# From US20130085064A1, “PESTICIDAL MIXTURES CONTAINING ISOXAZOLINE DERIVATIVES AND INSECTICIDE OR NEMATOICIDAL BIOLOGICAL AGENT” (priority 2010, published 2013)
